Experimental data as given in US20250115571A1, “OXOPIPERAZINE DERIVATIVES” (Inthera Bioscience AG, priority 2017, published 2025).

Columns and labels:
[1] = test system: MKN45 human gastric adenocarcinoma cells; assay: Cell-derived xenograft mouse model for gastric cancer (MKN45 CDX); type: in vivo; settings: 12 mg/kg, QW, i.v.
Procedure: (§1) Female BALB/c nude mice (8-9 weeks of age) were injected with MKN45 human gastric adenocarcinoma cells. The cells were inoculated subcutaneously into the left flank of 48 mice. When tumors reached a mean volume of approximately 103 mm^3, mice were randomly assigned to eight treatment groups of each six mice (TABLE 16). Body weights were measured three times weekly prior to the initiation of dosing and daily thereafter. Tumor burden was assessed by caliper measurement twice weekly. Dosing breaks were applied when tolerability issues arose (body weight loss>10%). The study was terminated four weeks post first dosing. The experiment was performed in the Crown Bioscience Ltd. (Beijing) testing facility (Ground Floor, Light Muller Building, Changping Sector of Zhongguancun Scientific Park, No. 21 Huoju Road, Changping District, Beijing, CHN).

[2] = test system: patient-derived castration-resistant prostate tumor cells (model #PR6511); assay: Castration resistant prostate cancer patient-derived xenograft (CRPC PDX); type: in vivo, mouse
Procedure: NSG NOD.Cg-PrkdcscidIj2rgtm1Wjl/SzJ mice (6-8 weeks of age) were injected with patient-derived castration-resistant prostate tumor cells (model #PR6511, Crown Bioscience UK Ltd Hillcrest, Osgathorpe Leicestershire, UK). The cells were inoculated subcutaneously into the left flank of 40 male NSG mice. When tumors reached a mean volume of approximately 100 mm^3 (i.e. 100 mm^3+/−54 mm^3, FIG. 3), mice were randomly assigned to five treatment groups of each eight mice (TABLE 9). Body weights were measured three times weekly prior to the initiation of dosing and daily thereafter. Tumor burden was assessed by caliper measurement three times weekly. Dosing breaks were applied when tolerability issues arose (body weight loss>10). Upon completion of the scheduled dosing phase at day 57, tumor outgrowth was monitored for groups 3, 4 and […] up to study day 77. Groups 1 and 2 were terminated on study day 57. Results of the experiment are shown in TABLES 10 and 11; and FIGS. 3 and 4. The experiment was performed in the Crown Bioscience Ltd. testing facility (Crown Bioscience UK Ltd Hillcrest, Dodgeford Lane, Osgathorpe Leicestershire LE12 9TE, UK).

[3] = test system: HPV-positive head-and-neck squamous cell carcinoma model #HN10309; assay: Patient-derived xenograft mouse model for head-and-neck squamous cell carcinoma (HN10309); type: in vivo; settings: p.o. BID, 30 mg/kg, female NMRI nu/nu mice
Procedure: Female NMRI nu/nu mice were injected with cells derived from a human head-and-neck cancer (model #HN10309, an HPV-positive head-and-neck squamous cell carcinoma, EPO-GmbH, Berlin, Germany). The cells were inoculated subcutaneously into the left flank of 24 mice. Thirty-three days later tumors reached a mean volume of approximately 116 mm^3, and mice were randomly assigned to three treatment groups of each eight mice (TABLE 21). Body weights were measured twice weekly. Tumor burden was assessed by caliper measurement twice weekly. Dosing breaks were applied when tolerability issues arose (body weight loss>[…]). The study was terminated four weeks post first dosing. The experiment was performed in the EPO animal testing facility (Experimental Pharmacology and Oncology GmbH, 13125 Berlin-Buch, Germany).

[4] = test system: HPV-positive head-and-neck squamous cell carcinoma model #HN11303; assay: Patient-derived xenograft mouse model for head-and-neck squamous cell carcinoma (HN11303); type: in vivo; settings: for mean TV: subcutaneous HPV-positive HNSCC model, female NMRI nu/nu mice; for mice tumor-free at the end of the observation period: HN11303 PDX, variable dosages (TABLE 23), all sixteen mice of the two groups
Procedure: Female NMRI nu/nu mice were injected with cells derived from a human head-and-neck cancer (model #HN11303, an HPV-positive head-and-neck squamous cell carcinoma, EPO-GmbH, Berlin, Germany). The cells were inoculated subcutaneously into the left flank of 40 mice. Thirteen days later tumors reached a mean volume of approximately 107 mm^3, and mice were randomly assigned to five treatment groups of each eight mice (TABLE 23). Body weights were measured twice weekly. Tumor burden was assessed by caliper measurement twice weekly. Dosing breaks were applied when tolerability issues arose (body weight loss>10). The study was terminated five weeks post first dosing. The experiment was performed in the EPO animal testing facility (Experimental Pharmacology and Oncology GmbH, 13125 Berlin-Buch, Germany).

[5] = test system: SiHa human HPV16-positive cervical cancer cells; assay: Cell-derived xenograft mouse model for cervical cancer (SiHa CDX); type: in vivo; settings: p.o.; for Tumor Size day 37: SiHa CDX, female BALB/c nude mice, Mean ± SEM; for T/C: day 37, tumor-to-control ratio (volume/volume)
Procedure: as §1, with “(7-9” for “(8-9”, “SiHa” for “MKN45”, “HPV16-positive (Human Papillomavirus type 16) cervical cancer” for “gastric adenocarcinoma”, “111” for “103”, “18).” for “16).”, “CHIN).” for “CHN).”

[6] = p.o. QD, 30 mg/kg, groups of eight mice
[7] = 1 mg/kg, BID, listed as Compound 248

Row | SMILES | mean TV ([3]; Day 33) [cm^3] | mean TV ([3]; Day 35) [cm^3] | mean TV ([3]; Day 38) [cm^3] | mean TV ([3]; Day 41) [cm^3] | mean TV ([3]; Day 45) [cm^3] | mean TV ([3]; Day 49) [cm^3] | mean TV ([3]; Day 53) [cm^3] | mean TV ([3]; Day 56) [cm^3] | mean TV ([4]; day 13) [cm^3] | mean TV ([4]; day 15) [cm^3] | mean TV ([4]; day 18) [cm^3] | mean TV ([4]; day 21) [cm^3] | mean TV ([4]; day 25) [cm^3] | mean TV ([4]; day 29) [cm^3] | mean TV ([4]; day 33) [cm^3] | mean TV ([4]; day 36) [cm^3] | Tumor Size day 37 ([5]; 3 mg/kg, BID) [mm^3] | T/C ([5]; 3 mg/kg, BID) [%] | mice tumor-free at the end of the observation period [4] | also measured
1 | CC(=O)O[C@H]1C(=O)[C@@]2(C)[C@H]([C@H](OC(=O)c3ccccc3)[C@]3(O)C[C@H](OC(=O)[C@H](O)[C@@H](NC(=O)c4ccccc4)c4ccccc4)C(C)=C1C3(C)C)[C@]1(OC(C)=O)CO[C@@H]1C[C@@H]2O [Paclitaxel, paclitaxel, reference compound] |  |  |  |  |  |  |  |  |  |  |  |  |  |  |  |  |  |  |  | Tumor Size day 29 ([1]; MKN45 CDX, female BALB/c nude mice, Mean ± SEM): 554.9 ± 52.8 mm^3; T/C ([1]; day 29, tumor-to-control ratio (volume/volume)): 46.6%
2 | CNC(=O)c1ccc(N2C(=S)N(c3ccc(C#N)c(C(F)(F)F)c3)C(=O)C2(C)C)cc1F [Enzalutamide, enzalutamide, reference compound] |  |  |  |  |  |  |  |  |  |  |  |  |  |  |  |  |  |  |  | TWO-WAY ANOVA p (tumor size at the end of the study) vs. Vehicle ([2]; 30 mg/kg p.o. QD, n.s. = not significant): n.s.; CR (complete regression) = number of mice [2, 6]: 0; PR (partial regression) = number of mice [2, 6]: 0; TFS (Tumor Free Survival) = number of complete regressions recorded up to Group Day End [2, 6]: 0
3 | CC(C)C[C@@H]1NCCN([C@@H](CC(C)C)C(=O)N2CCC(CCN3CCC4(CC3)CC4)CC2)C1=O [Compound 282, (S)-1-[(S)-1-[(4-{2-(6-Aza-6-spiro[2.5]octyl)eth-yl}-1-piperidyl)carbonyl]-3-methylbutyl]-3-isobutyl-2-piperazinone] | 0.1161 | 0.1308 | 0.1751 | 0.2086 | 0.3560 | 0.4920 | 0.6364 | 0.6558 | 0.1073 | 0.1061 | 0.1040 | 0.0971 | 0.1111 | 0.1030 | 0.1273 | 0.1185 |  |  |  | 
4 | CC(C)C[C@@H]1NCCN([C@@H](CC(C)C)C(=O)N2CCC3(C[C@@H]2C)OCC(CN2CCC2)CO3)C1=O (stereo partly drawn) [Compound 318, (S)-1-[(S)-1-({(S)-3-[(1-Azetidinyl)methyl]-8-methyl-1,5-dioxa-9-aza-9-spiro[5.5]undecyl}car-bonyl)-3-methylbutyl]-3-isobutyl-2-piperazinone] |  |  |  |  |  |  |  |  |  |  |  |  |  |  |  |  | 351 ± 68 | 37.5 |  | 
5 | CC(C)C[C@H]1C(=O)N([C@@H](CC(C)C)C(=O)N2CCC3(C[C@@H]2C)OCC(CN2CCCC2)CO3)CCN1C (stereo partly drawn) [Compound 273, (S)-1-[(S)-1-({(S)-8-Methyl-3-[(1-pyrrolidinyl)methyl]-1,5-dioxa-9-aza-9-spiro[5.5]un-decyl}carbonyl)-3-methylbutyl]-3-isobutyl-4-methyl-2-piperazinone] |  |  |  |  |  |  |  |  | 0.1063 | 0.1073 | 0.0948 | 0.0875 | 0.0451 | 0.0194 | 0.0056 | 0.0031 | 942.0 ± 114.9 | 79.3 | tumor-free | 
6 | CC(C)C[C@@H]1NCCN([C@@H](CC(C)C)C(=O)N2CCC3(C[C@@H]2C)OCC(CN2CCCC2)CO3)C1=O (stereo partly drawn) [Compound 248, (S)-1-[(S)-1-({(S)-8-Methyl-3-[(1-pyrrolidinyl)methyl]-1,5-dioxa-9-aza-9-spiro[5.5]un-decyl}carbonyl)-3-methylbutyl]-3-isobutyl-2-piperazinone] | 0.1159 | 0.1248 | 0.1389 | 0.1093 | 0.1794 | 0.2398 | 0.2964 | 0.2569 | 0.1064 | 0.0958 | 0.0916 | 0.0511 | 0.0499 | 0.0288 | 0.0068 | 0.0041 | 178 ± 27 | 19 | tumor-free | Tumor Size day 37 [5, 7]: 586 ± 82 mm^3; T/C [5, 7]: 62.6%; Tumor Size day 37 ([5]; 6 mg/kg, QD): 238 ± 37 mm^3; T/C ([5]; 6 mg/kg, QD): 25.4%
